Source: ChEMBL document CHEMBL2074269, “The interaction of n-tetraalkylammonium compounds with a human organic cation transporter, hOCT1” (J Pharmacol Exp Ther, 1999)
pIC50: −log10 of the molar value.

Target: T1, Solute carrier family 22 member 1 (Homo sapiens, UniProt O15245)
T1 sequence (O15245 whole entry): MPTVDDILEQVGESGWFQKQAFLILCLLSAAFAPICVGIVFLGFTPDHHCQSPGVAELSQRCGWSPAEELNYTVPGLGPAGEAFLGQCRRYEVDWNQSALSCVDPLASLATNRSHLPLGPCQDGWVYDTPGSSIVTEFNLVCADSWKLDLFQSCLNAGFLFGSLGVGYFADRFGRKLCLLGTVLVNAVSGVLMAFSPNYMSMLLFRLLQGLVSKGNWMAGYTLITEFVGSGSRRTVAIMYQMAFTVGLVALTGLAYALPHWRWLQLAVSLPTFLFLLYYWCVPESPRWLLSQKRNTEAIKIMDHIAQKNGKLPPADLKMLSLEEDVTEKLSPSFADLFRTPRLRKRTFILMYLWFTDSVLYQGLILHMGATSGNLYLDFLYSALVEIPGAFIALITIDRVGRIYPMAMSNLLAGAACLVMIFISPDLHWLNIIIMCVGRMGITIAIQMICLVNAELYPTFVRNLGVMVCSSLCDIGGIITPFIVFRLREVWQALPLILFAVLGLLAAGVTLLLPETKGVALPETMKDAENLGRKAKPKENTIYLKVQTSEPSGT
Assay type: functional, cell-based, HeLa

Compound | pIC50
CCCC[N+](CCCC)(CCCC)CCCC [TETRABUTHYLAMMONIUM] | 4.28
CCCCCC[N+](CCCCCC)(CCCCCC)CCCCCC [TETRAHEXYLAMMONIUM] | 5.52
CCC[N+](CCC)(CCC)CCC [TETRAPROPYLAMMONIUM] | 4.05
